The results in this text go back to ChEMBL document CHEMBL1141514, “QSAR studies on CCR2 antagonists with chiral sensitive hologram descriptors” (Bioorg Med Chem Lett, 2008).

This assay has as its target C-C chemokine receptor type 2 (Homo sapiens, UniProt P41597). The experiment in a line: Antagonist activity at human CCR2b receptor. The class given is functional.

SMILES strings stand for the structures.

C-C chemokine receptor type 2, sequence (P41597 whole entry): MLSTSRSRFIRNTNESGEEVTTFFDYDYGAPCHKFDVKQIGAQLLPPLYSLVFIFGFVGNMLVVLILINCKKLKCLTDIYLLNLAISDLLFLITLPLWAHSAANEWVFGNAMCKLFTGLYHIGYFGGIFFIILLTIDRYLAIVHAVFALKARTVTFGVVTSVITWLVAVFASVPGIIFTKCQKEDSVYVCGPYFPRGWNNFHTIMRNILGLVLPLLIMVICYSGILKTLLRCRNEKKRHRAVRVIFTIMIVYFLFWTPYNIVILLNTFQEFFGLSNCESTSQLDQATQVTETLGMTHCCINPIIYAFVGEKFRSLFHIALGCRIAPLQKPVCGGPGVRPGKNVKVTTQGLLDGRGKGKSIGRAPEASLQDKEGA

What is called IC50 is the concentration that gives 50% inhibition. For the molecule `O=C(NCc1cc(C(F)(F)F)cc(C(F)(F)F)c1)[C@@H](NCCN1CCC(c2ccccc2)CC1)c1ccccc1`, for the setting “read-out: Log IC50 (converted)”, the half-inhibitory concentration (IC50) is 832 nM.
Take `O=C(NCc1cc(C(F)(F)F)cc(C(F)(F)F)c1)C(CCN1CCC2(C=Cc3ccccc32)CC1)C1CC1` (configuration not stated): the half-maximal inhibitory concentration (IC50) (read-out: IC50) is 98 nM.
The same measure, in the same setting: to `C[C@H]1CN([C@@H]2CC[C@](CC3CCC3)(C(=O)NCc3cc(C(F)(F)F)cc(C(F)(F)F)c3)C2)CC[C@]12C=Cc1ccccc12` belongs 19 nM.
For `C[C@H]1CN([C@@H]2CC[C@H](C(=O)NCc3cc(C(F)(F)F)cc(C(F)(F)F)c3)C2)CC[C@]12C=Cc1ccccc12`, the half-maximal inhibitory concentration (IC50) (read-out: IC50) turned out to be 20 nM.
Still for that read-out and setting: then `C[C@H]1CN([C@@H]2CC[C@](C)(C(=O)NCc3cc(C(F)(F)F)cc(C(F)(F)F)c3)C2)CC[C@]12C=Cc1ccccc12`, with 9 nM.
Take `CC(C)[C@]1(C(=O)NCc2cc(C(F)(F)F)cc(C(F)(F)F)c2)CC[C@@H](N2CC[C@]3(C=Cc4ccccc43)[C@@H](C)C2)C1`: for the setting “read-out: IC50”, the IC50 is 7.6 nM.
Consider `C[C@H]1CN([C@@H]2CC[C@](C)(C(=O)NCc3cc(F)cc(C(F)(F)F)c3)C2)CC[C@]12C=Cc1ccccc12`, for which the IC50 (read-out: IC50) was 4 nM.
Still for that read-out and setting: then `CSC[C@]1(C(=O)NCc2cc(C(F)(F)F)cc(C(F)(F)F)c2)CC[C@@H](N2CC[C@]3(C=Cc4ccccc43)[C@@H](C)C2)C1`, with 13 nM.
The same measure, in the same setting: then `CC(C)[C@]1(C(=O)NCc2cc(F)cc(C(F)(F)F)c2)CC[C@@H](N2CC[C@]3(C=Cc4ccccc43)[C@@H](C)C2)C1`, with 3.1 nM; and `CC(C)C[C@]1(C(=O)NCc2cc(F)cc(C(F)(F)F)c2)CC[C@@H](N2CC[C@]3(C=Cc4ccccc43)[C@@H](C)C2)C1`, with 3.9 nM.
Still for that read-out and setting: then `CSC[C@]1(C(=O)NCc2cc(F)cc(C(F)(F)F)c2)CC[C@@H](N2CC[C@]3(C=Cc4ccccc43)[C@@H](C)C2)C1`, with 3.5 nM; and `CS[C@]1(C(=O)NCc2cc(F)cc(C(F)(F)F)c2)CC[C@@H](N2CC[C@]3(C=Cc4ccccc43)[C@@H](C)C2)C1`, with 67 nM; and `CC(CCN1CCC2(C=Cc3ccccc32)CC1)C(=O)NCc1cc(C(F)(F)F)cc(C(F)(F)F)c1` (configuration not stated), with 231 nM.
For `C=CCC(CCN1CCC2(C=Cc3ccccc32)CC1)C(=O)NCc1cc(C(F)(F)F)cc(C(F)(F)F)c1` (configuration not stated), under “read-out: IC50”, the 50% inhibitory concentration (IC50) was determined as 193 nM.
Consider `C[C@H]1CN(CCC(C(=O)NCc2cc(C(F)(F)F)cc(C(F)(F)F)c2)C2CC2)CC[C@@]12C=Cc1ccccc12` (some centres not stated), for which the half-inhibitory concentration (IC50) (read-out: IC50) amounted to 14 nM.
On the same count and under the same terms, to `C[C@H]1CN(CCC(C(=O)NCc2cc(C(F)(F)F)cc(C(F)(F)F)c2)C2CCC2)CC[C@@]12C=Cc1ccccc12` (some centres not stated) belongs 28 nM; to `O=C(NCc1cc(C(F)(F)F)cc(C(F)(F)F)c1)C(CCN1CCC(c2ccc(F)cc2)CC1)C1CC1` (configuration not stated), 280 nM.
Same read-out and setting: then `O=C(NCc1cc(C(F)(F)F)cc(C(F)(F)F)c1)C(CCN1CCC(c2ccccc2)CC1)C1CC1` (configuration not stated), with 285 nM; and `CCCC(CCN1CCC(c2ccccc2)CC1)C(=O)NCc1cc(C(F)(F)F)cc(C(F)(F)F)c1` (configuration not stated), with 126 nM.
Same read-out and setting: to `CCC[C@]1(C(=O)NCc2cc(C(F)(F)F)cc(C(F)(F)F)c2)CC[C@@H](N2CC[C@]3(C=Cc4ccccc43)[C@@H](C)C2)C1` belongs 16 nM.
As for `CS[C@]1(C(=O)NCc2cc(C(F)(F)F)cc(C(F)(F)F)c2)CC[C@@H](N2CC[C@]3(C=Cc4ccccc43)[C@@H](C)C2)C1`, the half-maximal inhibitory concentration (IC50) (read-out: IC50) turned out to be 28 nM.
On the same count and under the same terms, to `CC(C)C[C@]1(C(=O)NCc2cc(C(F)(F)F)cc(C(F)(F)F)c2)CC[C@@H](N2CC[C@]3(C=Cc4ccccc43)[C@@H](C)C2)C1` belongs 8 nM.
On the same count and under the same terms, then `C=CCC(CCN1CCC(c2ccccc2)CC1)C(=O)NCc1cc(C(F)(F)F)cc(C(F)(F)F)c1` (configuration not stated), with 642 nM.
Still for that read-out and setting: then `CC(C)C(CCN1CCC2(C=Cc3ccccc32)CC1)C(=O)NCc1cc(C(F)(F)F)cc(C(F)(F)F)c1` (configuration not stated), with 204 nM.
For the molecule `C[C@H]1CN(CCC(CC2CC2)C(=O)NCc2cc(C(F)(F)F)cc(C(F)(F)F)c2)CC[C@@]12C=Cc1ccccc12` (some centres not stated), the concentration for half-maximal inhibition (IC50) (read-out: IC50) came to 25 nM.
`Nc1nc([C@@H](CCN2CCC(c3ccccc3)CC2)C(=O)NCc2cc(C(F)(F)F)cc(C(F)(F)F)c2)cs1`: for the setting “read-out: IC50”, the half-inhibitory concentration (IC50) worked out at 229 nM.
As for `C[C@H]1CN([C@@H]2CC[C@@](C(=O)NCc3cc(F)cc(C(F)(F)F)c3)(C3CC3)C2)CC[C@]12C=Cc1ccccc12`, where the note is “read-out: IC50”, the concentration for half-maximal inhibition (IC50) worked out at 1.9 nM.
